Experimental data: patent publication US10551393B1, “High-throughput, in vivo screening platform for modulators of Apolipoprotein B” (THE JOHNS HOPKINS UNIVERSITY, priority 2016, dated 2020)
Entries after “also recorded” stand apart in the source; their conditions may differ.

Tests used:
[1] = system: ApoB-NanoLuc® luciferase reporter; assay: ApoB-NanoLuc luciferase reporter assay in transgenic zebrafish larvae (primary screen); format: in vivo
Method: Of the two existing inhibitors of ApoB, lomitapide is the most appropriate for use as a proof of principle because it is a small molecule. Conversely, mipomersen is an injectable antisense biologic that is not suitable for comparison to small-molecule inhibitors and cannot be used a high-throughput manner. Larval zebrafish were treated with serial dilutions of the lomitapide for 36 hours from 2.5 to 4 dpf.
There are detailed protocols for the development and execution of a high-throughput screen using live vertebrate zebrafish (26, 27). The high-throughput screen uses transgenic zebrafish that carry both an engineered luciferase reporter (NanoLuc® luciferase) fused to ApoB which serves as the primary readout, and a second ubiquitously expressed firefly luciferase reporter that is used as an internal control. Transgenic larvae are raised to 3 days post-fertilization (dpf) and automatically sorted and dispensed into 96-well plates containing various dilutions of test compound. Following 48-hour incubation with test and control compounds, the zebrafish are homogenized and assayed sequentially for Firefly and NanoLuc® luciferase signal using the automated robotics platform and plate reader. Hit-calling software is used to select putative hits, which are validated through repetition and orthogonal screening. The first iteration of the screen uses a modest-sized library (3,000 compounds), and empirical determination of the optimal sample size and number of titration points required for screening enables an increase in throughput for the following iteration of the screen, which screens a 30,000 compound library.
Statistical resampling of positive control treatments can be used to estimate the appropriate sample size for HTS assays given type I and type II error rate thresholds and a desired cutoff for effect size (27). Assuming a type II error rate of 0.01 and setting the hit selection cutoff to 50% the magnitude of positive control treatment generates a log-linear relationship between sample size and type I error rate. […] Besides serving as a metric for assay quality, the SSMD score can also be used to determine hit cutoff criteria. This statistical test compares the averages between the negative control and each experimental sample, and then adjusts this difference based on the median absolute deviation (MAD) of each sample, such that samples with high variability are penalized and produce a poor SSMD score even if there is a large difference between the means. In positive control treatments, lomitapide produced an SSMD score of −4.5, reflecting a very strong control assay. The scaling factor formula can be used to determine the SSMD cutoff based on the desired magnitude relative to the positive control. A compound with a 50% effect size relative to MTP was chosen as a physiologically relevant effect size, which would produce an SSMD score of −2.7.
Day 1: Embryo production and collection—zebrafish homozygous for the ApoB-NanoLuc® luciferase and ubi:Fluc reporters are induced to spawn using custom mass-breeding chambers. Eggs are collected hourly from 9 AM to 2 PM. Embryos are maintained in petri dishes at a density of 5 fish/mL of embryo medium (E3). Day 2: Raising embryos—Embryos are maintained in E3 (1 dpf). Day 3: Raising embryos and preparing drug plates—Embryos are maintained in embryo medium (2 dpf). […]

[2] = system: firefly luciferase internal control reporter; assay: Firefly luciferase internal control (counter-screen) of the dual luciferase assay; format: in vivo; details: preliminary screen; cutoff SSMD ±2.4
Description: The primary screen seeks to identify compounds that lower ApoB levels, which is likely to identify numerous false positives that are cytotoxic or inhibit fundamental cellular processes such as transcription or translation. The inclusion of a counter-screen helps identify compounds that have strong effects on the target phenotype without causing major disruptions in other cellular processes. The pd75 zebrafish line carries a ubiquitous promoter driving firefly luciferase as well as the mCherry fluorescent reporter, which can be used to detect developmental delay or cytotoxicity in any organ. […]
The Nano-Glo® dual luciferase assay provides the means to independently measure firefly and NanoLuc® luciferase in a single reaction enabling parallel measurement of the primary screen reaction and counter-screen reaction in a high-throughput compatible add-and-read format. Consistent measurement of luciferase activity requires homogenous sample inputs, so we have developed homogenization methods using a microplate sonicator that exceeds the throughput capacity of the plate reader.
The NanoLuc® luciferase reporter uses a different substrate than firefly luciferase, allowing a second luciferase reporter to be measured in parallel as an internal control. […]

[3] = system: ApoB-containing lipoprotein particles; assay: In-gel luciferase assay for lipoprotein size distribution; format: in vivo, zebrafish; details: for lipoprotein particle size distribution: larval zebrafish homogenate, polyacrylamide gel, in-gel luciferase
Method: To evaluate whether introduction of the luciferase tag disrupted protein function, individual larvae carrying the reporter construct were homogenized and lipoprotein classes were separated on a 3% PAGE gel (see Singh et al. Lipids in Health and Disease 7:47, 2008). An in-gel luciferase assay was then performed to detect the NanoLuc® luciferase reporter present in the gel (FIG. 2A), and compared to the results obtained from adult zebrafish serum that was stained using lipophilic fluorescent dye (FIG. 2B). Encouragingly, essentially all of the signal was present in the expected VLDL, IDL, and LDL portions of the gel, which is consistent with the primary role of ApoB as an obligate structural component of lipid-rich lipoproteins. Additionally, this method has sufficient sensitivity and resolution to detect LDL subclasses, which are seen as deviations from the normal distribution in the plot profile. […] Additionally, signal from the ApoB-luciferase fusion is responsive to known chemical and physiological modulators of ApoB (MTP inhibition and fasting).
The in-gel luciferase assay developed in our lab provides the opportunity to rapidly and sensitively detect changes in lipoprotein size distribution using individual larval zebrafish. Following a week of high-fat diet with or without treatment of test compound, larval zebrafish are homogenized and lipoproteins are separated on a 3% native PAGE gel and imaged using the in-gel luciferase reporter. This enables rapid assessment of lead compounds on effects of the potentially clinically important lipoprotein size distribution phenotype. […]
In addition to its utility as a high-throughput compatible readout for measuring levels of Apolipoprotein B, the described ApoB-NanoLuc® luciferase reporter can also be used to measure the size distribution and localization of ApoB-containing particles in zebrafish larvae. Lipoproteins separated using polyacrylamide gel electrophoresis can be sensitively detected in individual larval homogenates by immersing the gel in the NanoLuc® luciferase substrate. […]

ApoB = details: cited from earlier work

Question: For `O=C(NC1CCN(CCCCC2(C(=O)NCC(F)(F)F)c3ccccc3-c3ccccc32)CC1)c1ccccc1-c1ccc(C(F)(F)F)cc1` [lomitapide], which “reporter activity relative to vehicle-treated controls” value ([1]; larval zebrafish, serial dilutions, 36 hours from 2.5 to 4 dpf) is on record?
Answer: Its value is “dose-dependent reduction”.

Question: And the “SSMD score (ApoB-NanoLuc)” value ([1]; positive control treatments, hit cutoff −2.7)?
Answer: The value was −4.5.

Question: What about the NanoLuc luciferase levels ([1]; preliminary screen, dose-response, hit selection cutoff −2.7) of the same molecule?
Answer: Its NanoLuc luciferase levels is “dose-dependent decrease”.

Question: And the “change in ApoB (ApoB-NanoLuc)” value ([1]; preliminary validation screen of lipid/lipoprotein metabolism compounds)?
Answer: Its value is “significant change in ApoB”.

Question: And the “ApoB-NanoLuc luciferase levels in transgenic larvae” value ([1]; transgenic larvae)?
Answer: The value was “significantly lowered”.

Question: And the “effect on internal control reporter (firefly luciferase)” value [2]?
Answer: The value was “without affecting the internal control reporter”.

Question: What about the ApoB levels ([3]; acute treatment, larval zebrafish, 3% native PAGE) of the same molecule?
Answer: The ApoB levels was “significant reduction”.

Question: And the “lipoprotein particle size distribution” value [3]?
Answer: The value was “unable to create large lipoprotein particles; also recorded: particle size and number are greatly reduced; also recorded: did not have large lipoprotein particles”.

Question: And the “lipoprotein particle size distribution” value ([3]; listed as Lomitapide)?
Answer: Its value is “induced the formation of very small lipoprotein particles”.

Question: And the “ApoB levels in humans” value (ApoB)?
Answer: Its value is “significant reduction”.
